The text below walks through data of publication PMC11593036, “Comparative Characterization of Three Homologous Glutathione Transferases from the Weed Lolium perenne” (Foods, 2024).

Where a chain is given by its changes, count along the chain named.

What all share (assay): steady-state kinetics
Holding throughout (format): biochemical

Test [1] addresses T1, LpGSTU25 (Lolium perenne, UniProt A0A165FYR3, F215Y).
T1 construct: gene GST; full-length cDNA from leaf mRNA in pEXP5-CT/TOPO, E. coli BL21(DE3), GSH-Sepharose; reverse primer carries stop codon (no C-terminal tag); primer-encoded N-terminus MASEKSS
T1 sequence (A0A165FYR3 1-226 F215Y): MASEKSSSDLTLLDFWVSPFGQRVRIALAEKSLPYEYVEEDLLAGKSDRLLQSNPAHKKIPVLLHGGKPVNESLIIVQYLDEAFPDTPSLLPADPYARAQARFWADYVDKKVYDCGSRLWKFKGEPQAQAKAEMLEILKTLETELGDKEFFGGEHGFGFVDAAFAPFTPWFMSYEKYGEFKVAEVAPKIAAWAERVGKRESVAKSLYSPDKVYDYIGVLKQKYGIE
The note with it: co-substrate GSH; read-out: Km (mM) (CDNB). From the text:
(§1) steady-state kinetics on LpGSTU25

Test [2] deals with T2, LpGSTU25 (Lolium perenne, UniProt A0A165FYR3, F215T).
T2 construct: gene GST; full-length cDNA from leaf mRNA in pEXP5-CT/TOPO, E. coli BL21(DE3), GSH-Sepharose; reverse primer carries stop codon (no C-terminal tag); primer-encoded N-terminus MASEKSS
T2 sequence (A0A165FYR3 1-226 F215T): T1 sequence (A0A165FYR3 1-226 F215Y) with Y215T
As to conditions: co-substrate GSH; read-out: Km (mM) (CDNB).
Excerpt: as §1

Test [3] addresses T3, LpGSTU25 (Lolium perenne, UniProt A0A165FYR3, F215K).
T3 construct: gene GST; full-length cDNA from leaf mRNA in pEXP5-CT/TOPO, E. coli BL21(DE3), GSH-Sepharose; reverse primer carries stop codon (no C-terminal tag); primer-encoded N-terminus MASEKSS
T3 sequence (A0A165FYR3 1-226 F215K): T1 sequence (A0A165FYR3 1-226 F215Y) with Y215K
The note with it: co-substrate GSH; read-out: Km (mM) (CDNB).
Excerpt: as §1

For test [4], the target named is T4, LpGSTU25 (Lolium perenne, UniProt A0A165FYR3, F215H).
T4 construct: gene GST; full-length cDNA from leaf mRNA in pEXP5-CT/TOPO, E. coli BL21(DE3), GSH-Sepharose; reverse primer carries stop codon (no C-terminal tag); primer-encoded N-terminus MASEKSS
T4 sequence (A0A165FYR3 1-226 F215H): T1 sequence (A0A165FYR3 1-226 F215Y) with Y215H
The note with it: co-substrate GSH; read-out: Km (mM) (CDNB).
Excerpt: as §1

Test [5] deals with T5, LpGSTU25 (Lolium perenne, UniProt A0A165FYR3, F215S).
T5 construct: gene GST; full-length cDNA from leaf mRNA in pEXP5-CT/TOPO, E. coli BL21(DE3), GSH-Sepharose; reverse primer carries stop codon (no C-terminal tag); primer-encoded N-terminus MASEKSS
T5 sequence (A0A165FYR3 1-226 F215S): T1 sequence (A0A165FYR3 1-226 F215Y) with Y215S
As to conditions: co-substrate GSH; read-out: Km (mM) (CDNB).
Excerpt: as §1

Test [6] concerns the target T6, LpGSTU25 (Lolium perenne, UniProt A0A165FYR3, F215R).
T6 construct: gene GST; full-length cDNA from leaf mRNA in pEXP5-CT/TOPO, E. coli BL21(DE3), GSH-Sepharose; reverse primer carries stop codon (no C-terminal tag); primer-encoded N-terminus MASEKSS
T6 sequence (A0A165FYR3 1-226 F215R): T1 sequence (A0A165FYR3 1-226 F215Y) with Y215R
The note with it: co-substrate GSH; read-out: Km (mM) (CDNB).
Excerpt: as §1

In test [7] the target is T7, LpGSTU25 (Lolium perenne, UniProt A0A165FYR3, F215L).
T7 construct: gene GST; full-length cDNA from leaf mRNA in pEXP5-CT/TOPO, E. coli BL21(DE3), GSH-Sepharose; reverse primer carries stop codon (no C-terminal tag); primer-encoded N-terminus MASEKSS
T7 sequence (A0A165FYR3 1-226 F215L): T1 sequence (A0A165FYR3 1-226 F215Y) with Y215L
The note with it: co-substrate GSH; read-out: Km (mM) (CDNB).
Excerpt: as §1

Test [8] addresses T8, LpGSTU25 (Lolium perenne, UniProt A0A165FYR3, F215V).
T8 construct: gene GST; full-length cDNA from leaf mRNA in pEXP5-CT/TOPO, E. coli BL21(DE3), GSH-Sepharose; reverse primer carries stop codon (no C-terminal tag); primer-encoded N-terminus MASEKSS
T8 sequence (A0A165FYR3 1-226 F215V): T1 sequence (A0A165FYR3 1-226 F215Y) with Y215V
The note with it: co-substrate GSH; read-out: Km (mM) (CDNB).
Excerpt: as §1

For test [9], the target named is T9, LpGSTU25 (Lolium perenne, UniProt A0A165FYR3).
T9 construct: gene GST; full-length cDNA from leaf mRNA in pEXP5-CT/TOPO, E. coli BL21(DE3), GSH-Sepharose; reverse primer carries stop codon (no C-terminal tag); primer-encoded N-terminus MASEKSS
T9 sequence (A0A165FYR3 1-226): T1 sequence (A0A165FYR3 1-226 F215Y) with Y215F
The note with it: co-substrate GSH; read-out: Km (mM) (CDNB).
Excerpt: as §1

In a further test the target is T10, LpGSTU5 (Lolium perenne, UniProt A0A165FYU2).
T10 construct: gene GST; full-length cDNA from leaf mRNA in pEXP5-CT/TOPO, E. coli BL21(DE3), GSH-Sepharose; reverse primer carries stop codon (no C-terminal tag); primer-encoded N-terminus MASEKSS
T10 sequence (A0A165FYU2 1-226): T1 sequence (A0A165FYR3 1-226 F215Y) with A56V, F122L, K131R, Y215H, Q221K
The note with it: co-substrate GSH; sigmoid, positive cooperativity between the two H-sites; read-out: Km (mM) (CDNB). The source says:
steady-state kinetics on LpGSTU5

For a further test, the target named is T11, LpGSTU2 (Lolium perenne, UniProt A0A165FYT0).
T11 construct: gene GST; full-length cDNA from leaf mRNA in pEXP5-CT/TOPO, E. coli BL21(DE3), GSH-Sepharose; reverse primer carries stop codon (no C-terminal tag); primer-encoded N-terminus MASEKSS
T11 sequence (A0A165FYT0 1-226): T1 sequence (A0A165FYR3 1-226 F215Y) with S32N, D48E, A56V, A93S, S117T, F122L, K131R, Y215H, Q221K
As to conditions: co-substrate GSH; read-out: Km (mM) (CDNB). From the text: steady-state kinetics on LpGSTU2

In the case of `O=[N+]([O-])c1ccc(Cl)c([N+](=O)[O-])c1` [CDNB], the Michaelis-Menten constant (Km) on LpGSTU25 [1] is 0.91 ± 0.12 mM; on LpGSTU25 [2], 0.31 ± 0.03 mM; at LpGSTU25 [3], 0.77 ± 0.07 mM; at LpGSTU25 [4] it was 0.68 ± 0.08 mM; at LpGSTU25 [5], 0.33 ± 0.03 mM; on LpGSTU25 [6] it was 0.92 ± 0.32 mM. Further, the Michaelis-Menten constant (Km) was determined as 0.25 ± 0.02 mM on LpGSTU25 [7]; 0.29 ± 0.02 mM at LpGSTU25 [8]; 0.28 ± 0.03 mM on LpGSTU25 [9]; 0.1 ± 0.04 mM on LpGSTU5; 0.47 ± 0.03 mM at LpGSTU2.
